One molecule from patent publication US10920198B2, “Delta133p53beta and delta133p53gamma isoforms are biomarkers of cancer stem cells” (Centre National de la Recherche Scientifique (CNRS), priority 2015, dated 2021) can be followed below.

Format in all cases: cell-based, human
One test deals with MCF-7 cells. Description: Mammosphere formation in MCF-7 cells. To be noted: 50 ng/ml/day for 7 days. How it is done: For mammosphere formation, 1000 cells/ml (500 cells/well) were plated in Ultra Low Cluster Plate, 24-well, Flat Bottom (Corning Inc) with MammoCult™ Medium enriched with MammoCult™ Proliferation Supplements, hydrocortisone and heparin (Stem Cell Technologies) and cultured for 15 days. For all mammosphere assays, at least three independent experiments for each condition were carried out and repeated 8-12 times. For self-renewal experiments, transfected cells were subjected to a first cycle of mammosphere formation. Upon 15 days of culture the created mammospheres were dissociated and cells were re-plated in identical conditions as for the first plating.

Test [1] deals with c-Myc, Sox 2, Oct 3/4 and Nanog. Description: Expression of pluripotency/reprogramming factors in MCF-7 cells (RT-qPCR, western blot). An excerpt:
(§1) The following antibodies were used for immunoblotting: anti-c-Myc (9E10 mouse hybridoma clone), -Nanog (sc-81961, Santa Cruz Biotechnology), -Oct 3/4 (sc-8630, Santa Cruz Biotechnology), -Sox 2 (sc-17320, Santa Cruz Biotechnology), -p53 (DO-1; sc-126 Santa Cruz Biotechnology), -p53 Sapu (Vojtesek et al. 1995), -α-tubulin (clone DM1A, Sigma-Aldrich), -β-actin (clone AC-74 Sigma-Aldrich), -p21 (sc-397 Santa Cruz Biotechnology) and -Flag (clone M2; Sigma-Aldrich). Secondary HRP-conjugated antibodies were from GE Healthcare. For luminescence quantification, cells were serially diluted and incubated with 0.5 mM D-luciferin (Sigma). Luminescence was quantified with a Polarstar Omega instrument (BMG LABTECH).
(§2) Total RNA was extracted (Qiagen) and reverse transcription (RT) was performed with 1-5 μg of total RNA using the SuperScript® III Reverse Transcriptase (Life Technologies) at 50° C. Levels of different mRNAs were quantified by real-time qPCR on a LightCycler480 apparatus (Roche). Briefly, 20 ng cDNA was amplified using 0.168 μM of each primer, 0.2 μM of probe (Table 4) and 1× LightCycler® 480 Probes Master Mix (Roche) for the p53 isoforms, or commercially available primers (Qiagen) and 1× LightCycler® 480 Sybr Green Master Mix (Roche) for the other genes. Data were normalized to the internal standard TBP. The different primers used and their corresponding sequences have been previously described (Bourdon et al., 2005). For each single-well amplification reaction, a threshold cycle (Ct) was calculated by using the LightCycler480 program (Roche) in the exponential phase of amplification. Relative changes in gene expression were determined using the 2ΔΔCt method and reported relative to a control. All quantification studies were performed with at least three independent experiments, repeated twice, for each condition. Data are presented as the arithmetic mean±SEM.
A general note: Quantitative PCR measures a nucleic acid by following its amplification.

The subject of test [2] is Δ133p53 (α, β and γ) isoforms. The test can be described thus: Expression of Δ133p53 isoforms in MCF-7 cells (RT-qPCR, western blot). The note with it: MCF-7, etoposide treatment; RT-qPCR and western blot.
Excerpt: as §1
Total RNA was extracted (Qiagen) and reverse transcription (RT) was performed with 1-5 μg of total RNA using the SuperScript® III Reverse Transcriptase (Life Technologies) at 50° C. Levels of different mRNAs were quantified by real-time qPCR on a LightCycler480 apparatus (Roche). […] For each single-well amplification reaction, a threshold cycle (Ct) was calculated by using the LightCycler480 program (Roche) in the exponential phase of amplification. Relative changes in gene expression were determined using the 2ΔΔCt method and reported relative to a control. All quantification studies were performed with at least three independent experiments, repeated twice, for each condition. […]

In test [3] the test system is p53, p21. The test can be described thus: Western blot of p53 and p21 in MCF-7 cells after etoposide. The note with it: MCF-7, increasing concentrations of etoposide, 16 hours. How it is done: (§3) The human breast cancer cell lines MCF-7, MDA-MB 231 […] and […] were grown in MEM supplemented with 10% FCS, sodium pyruvate and glutamine. Following viral infection, cells were used after 24-48 h or subjected to selection with 2 μg/ml puromycin (InvivoGen) or 300 μg/ml hygromycin B (Invitrogen) for two days. Etoposide treatment was performed with final doses of 12.5, 25 and 50 ng/ml for 16 h or 50 ng/ml/day for 7 days. […] Secondary HRP-conjugated antibodies were from GE Healthcare. For luminescence quantification, cells were serially diluted and incubated with 0.5 mM D-luciferin (Sigma). Luminescence was quantified with a Polarstar Omega instrument (BMG LABTECH).

Test [4] has as its system c-Myc, Oct 3/4, Nanog and Sox 2. The test can be described thus: Expression of pluripotency/reprogramming factors in MDA-MB-231 D3H2LN cells (RT-qPCR, western blot). To be noted: MDA-MB-231 D3H2LN. How it is done:
The human breast cancer cell lines MCF-7, MDA-MB 231 D3H2LN and C3LND were grown in MEM supplemented with 10% FCS, sodium pyruvate and glutamine. Following viral infection, cells were used after 24-48 h or subjected to selection with 2 μg/ml puromycin (InvivoGen) or 300 μg/ml hygromycin B (Invitrogen) for two days. Etoposide treatment was performed with final doses of 12.5, 25 and 50 ng/ml for 16 h or 50 ng/ml/day for 7 days.
as §1, §2

Test [5] has as its system Δ133p53 (α, β and γ) isoforms. Description: Expression of Δ133p53 isoforms in MDA-MB-231 D3H2LN cells after etoposide. The note with it: not dose-dependent. The procedure:
The human breast cancer cell lines MCF-7, MDA-MB 231 […] and […] were grown in MEM supplemented with 10% FCS, sodium pyruvate and glutamine. Following viral infection, cells were used after 24-48 h or subjected to selection with 2 μg/ml puromycin (InvivoGen) or 300 μg/ml hygromycin B (Invitrogen) for two days. Etoposide treatment was performed with final doses of 12.5, 25 and 50 ng/ml for 16 h or 50 ng/ml/day for 7 days.

In test [6] the test system is p53, p21. The test can be described thus: Western blot of p53 and p21 in MDA-MB-231 D3H2LN cells after etoposide. To be noted: MDA-MB-231 D3H2LN (p53 R280K), increasing concentrations of etoposide. How it is done: as §3
(In general: Immunoblotting shows a protein as a band on a membrane.)

The structures appear in SMILES notation.

Take `COc1cc([C@@H]2c3cc4c(cc3[C@@H](O[C@@H]3O[C@@H]5CO[C@@H](C)O[C@H]5[C@H](O)[C@H]3O)[C@H]3COC(=O)[C@H]23)OCO4)cc(OC)c1O` [etoposide, reference compound]: the results for the mammosphere formation result in the test on MCF-7 cells (Sh2-transduced MCF-7 cells) and in the test on MCF-7 cells (control MCF-7 cells (active TAp53)) were “did not have any significant effect” and “significantly reduced”, respectively. In addition, the c-Myc expression result is given as “reduced” in test [1] (MCF-7, increasing concentrations of etoposide, western blot and RT-qPCR); “significantly down-regulated” in test [4] (increasing concentrations of etoposide). In addition, in test [1] (MCF-7, increasing doses of etoposide, RT-qPCR), the “Oct 3/4, Nanog and Sox 2 expression” value is on record as “strongly up-regulated in a dose-dependent manner”. Moreover, the Δ133p53 isoforms expression entry in test [2] is on record as “strongly up-regulated in a dose-dependent manner”. Also, in the test on p53, p21 [3], the TAp53α level entry is “stabilization”. For the same molecule, the p21 expression entry in the test on p53, p21 [3] is “increased”; with p53, p21 [6], “only weakly increased”. Moreover, the “expression of Nanog, Sox 2 and Oct 3/4” value in test [4] (incubation with etoposide) is reported as “up-regulated”. Further, in test [5], the “expression of Δ133p53 isoforms” value is “up-regulated”. For the same molecule, the TAp53 expression result with p53, p21 [6] is given as “did not affect”.
